Assay results as given in patent US20060140863A1, “Production of a dye agent for colouring cells in the human or animal body” (Fluoron GMBH, priority 2002, published 2006).
Read-outs that look alike come from different tables or passages of the source.

Key:
ARPE-19-cells = experiment: Cytotoxicity by protein content of treated cell cultures vs untreated controls (growth inhibition); type: cell-based; settings: differing levels of concentration, 68 to 72 hours in an incubator, protein content vs untreated control
Source text: (§1) The vitality of the cells and a deduced cytotoxicity is quantitatively determined by determining the protein content of the treated cell cultures in comparison with untreated control cultures. The protein content is ascertained by a colorimetric procedure with a standard process.
(§2) It is found in this respect that cytotoxicity of a significant level corresponding to growth inhibition of more than 30% is not present.

mouse cells L 929 = experiment: as above; type: cell-based; settings: L 929 cells, differing levels of concentration, 68 to 72 hours in an incubator, protein content vs untreated control
Source text: as §1, §2

[1] = Cytotoxicity, general statement; type: cell-based; settings: biocompatible solution according to the invention, in comparison with trypan blue
Source text: Trypan blue is a cytotoxic substance, as is known for example from Solomon K D et al: Protective effect of the anterior lens capsule during extra capsular cataract extraction, OPHTHALMOLOGY, Vol 96, No 5, May 1989, 591-597, and Veckener M et al: Ocular toxicity study of trypan blue injected into the vitreous cavity of rabbit eyes, Graefe's Arch. Clin. Ex. Ophthalmol. (2002) 239:698-704. When using trypan blue therefore complete flushing out in particular of the region of the eye in which the trypan blue was used as a dye agent is required immediately after the cataract operation in order to prevent it from remaining in the body or in the eye for a prolonged period of time.

[2] = known from Solomon et al 1989 and Veckener et al 2002 (rabbit eyes); cited from earlier work
[3] = Cahen 1964 and BLURHEX product information; cited from earlier work

| Compound | growth inhibition (cytotoxicity of a significant level = more than 30%) (ARPE-19-cells) | growth inhibition (cytotoxicity of a significant level = more than 30%) (mouse cells L 929) | cytotoxicity [1] | cytotoxicity [2] | teratogenic or mutagenic action [3] |
| --- | --- | --- | --- | --- | --- |
| CCN(CC)c1ccc(C(=C2C=CC(=[N+](CC)CC)C=C2)c2cc(O)c(S(=O)(=O)[O-])cc2S(=O)(=O)[O-])cc1.CCN(CC)c1ccc(C(=C2C=CC(=[N+](CC)CC)C=C2)c2cc(O)c(S(=O)(=O)[O-])cc2S(=O)(=O)[O-])cc1.[Ca+2] [patent blue V] | ≤ 30% | ≤ 30% | does not have any cytotoxicity |  |  |
| Cc1cc(-c2ccc(/N=N/c3c(S(=O)(=O)O)cc4cc(S(=O)(=O)O)cc(N)c4c3O)c(C)c2)ccc1/N=N/c1c(S(=O)(=O)O)cc2cc(S(=O)(=O)O)cc(N)c2c1O [Trypan blue, trypan blue] |  |  |  | cytotoxic | teratogenic or mutagenic action |
| brilliant blue R |  |  | does not have any cytotoxicity |  |  |
